# Source: PubChem BioAssay AID2060506 (Molecular Pharmacology Branch, DTP, NCI, 2025)
# Test system: 598228-144-R-J1-PDC complex spheroid viability
# Assay: Anticancer human tumor 598228-144-R-J1-PDC patient-derived serous endometrial adenocarcinoma cell line growth inhibition [GQUAD]
# Conditions: for IC50: curve of first compound; for viability, T/C: stronger effect = lower value
# How it was run: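 Viability of tumor cells grown as complex spheroids with endothelial and stromal cells, exposed to drug combinations. Top concentration at or near clinical Cmax (else 10 microM), diluted in half-log increments.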
# [1] = second compound 0.0316 µM, first compound 0.0316 µM
# [2] = second compound 0.0316 µM, first compound 0.1 µM
# [3] = second compound 0.0316 µM, first compound 0.316 µM
# [4] = second compound 0.0316 µM, first compound 1 µM
# [5] = second compound 0.0316 µM, first compound 3.16 µM
# [6] = second compound 0.0316 µM, first compound 10 µM
# [7] = second compound 0.1 µM, first compound 0.0316 µM
# [8] = second compound 0.1 µM, first compound 0.1 µM
# [9] = second compound 0.1 µM, first compound 0.316 µM
# [10] = second compound 0.1 µM, first compound 1 µM
# [11] = second compound 0.1 µM, first compound 3.16 µM
# [12] = second compound 0.1 µM, first compound 10 µM
# [13] = second compound 0.316 µM, first compound 0.0316 µM
# [14] = second compound 0.316 µM, first compound 0.1 µM
# [15] = second compound 0.316 µM, first compound 0.316 µM
# [16] = second compound 0.316 µM, first compound 1 µM
# [17] = second compound 0.316 µM, first compound 3.16 µM
# [18] = second compound 0.316 µM, first compound 10 µM
# [19] = second compound 1 µM, first compound 0.0316 µM
# [20] = second compound 1 µM, first compound 0.1 µM
# [21] = second compound 1 µM, first compound 0.316 µM
# [22] = second compound 1 µM, first compound 1 µM
# [23] = second compound 1 µM, first compound 3.16 µM
# [24] = second compound 1 µM, first compound 10 µM
# [25] = second compound 3.16 µM, first compound 0.0316 µM
# [26] = second compound 3.16 µM, first compound 0.1 µM
# [27] = second compound 3.16 µM, first compound 0.316 µM
# [28] = second compound 3.16 µM, first compound 1 µM
# [29] = second compound 3.16 µM, first compound 3.16 µM
# [30] = second compound 3.16 µM, first compound 10 µM
# [31] = second compound 10 µM, first compound 0.0316 µM
# [32] = second compound 10 µM, first compound 0.1 µM
# [33] = second compound 10 µM, first compound 0.316 µM
# [34] = second compound 10 µM, first compound 1 µM
# [35] = second compound 10 µM, first compound 3.16 µM
# [36] = second compound 10 µM, first compound 10 µM
# 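Also: spheroids exposed to the agents for one week before reading.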
# 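For viability, T/C in this document: percent of vehicle DMSO control viability so 100% = untreated growth.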
compound,measurement,setting,value
C#Cc1c(F)ccc2cc(O)cc(-c3ncc4c(N5CC6CCC(C5)N6)nc(OCC56CCCN5CC(F)C6)nc4c3F)c12 (centres undefined) + Cc1[nH]c2ccc(F)cc2c1-c1nc2c3cccnc3c3ncccc3c2[nH]1,IC50,second compound 0.0316 µM,> 10 µM
same,IC50,second compound 0.1 µM,> 10 µM
same,IC50,second compound 0.316 µM,> 10 µM
same,IC50,second compound 1 µM,> 10 µM
same,IC50,second compound 3.16 µM,< 0.0316 µM
same,IC50,second compound 10 µM,> 10 µM
same,"viability, T/C",[1],124%
same,"viability, T/C",[2],88.7%
same,"viability, T/C",[3],120%
same,"viability, T/C",[4],100%
same,"viability, T/C",[5],114%
same,"viability, T/C",[6],111%
same,"viability, T/C",[7],121%
same,"viability, T/C",[8],126%
same,"viability, T/C",[9],97.2%
same,"viability, T/C",[10],107%
same,"viability, T/C",[11],143%
same,"viability, T/C",[12],130%
same,"viability, T/C",[13],93.7%
same,"viability, T/C",[14],87.4%
same,"viability, T/C",[15],87.9%
same,"viability, T/C",[16],102%
same,"viability, T/C",[17],115%
same,"viability, T/C",[18],98.7%
same,"viability, T/C",[19],74.7%
same,"viability, T/C",[20],59.1%
same,"viability, T/C",[21],54.3%
same,"viability, T/C",[22],59.7%
same,"viability, T/C",[23],71.9%
same,"viability, T/C",[24],62%
same,"viability, T/C",[25],37%
same,"viability, T/C",[26],51.8%
same,"viability, T/C",[27],44.6%
same,"viability, T/C",[28],40.2%
same,"viability, T/C",[29],44.2%
same,"viability, T/C",[30],31.9%
same,"viability, T/C",[31],69.2%
same,"viability, T/C",[32],62.3%
same,"viability, T/C",[33],64.3%
same,"viability, T/C",[34],58.3%
same,"viability, T/C",[35],60%
same,"viability, T/C",[36],52.8%
CC(=O)O[C@H]1C(=O)[C@@]2(C)[C@H]([C@H](OC(=O)c3ccccc3)[C@]3(O)C[C@H](OC(=O)[C@H](O)[C@@H](NC(=O)c4ccccc4)c4ccccc4)C(C)=C1C3(C)C)[C@]1(OC(C)=O)CO[C@@H]1C[C@@H]2O + Cc1[nH]c2ccc(F)cc2c1-c1nc2c3cccnc3c3ncccc3c2[nH]1,IC50,second compound 0.0316 µM,0.141 µM
same,IC50,second compound 0.1 µM,0.051 µM
same,IC50,second compound 0.316 µM,4.36 µM
same,IC50,second compound 1 µM,< 0.0316 µM
same,IC50,second compound 3.16 µM,< 0.0316 µM
same,IC50,second compound 10 µM,< 0.0316 µM
same,"viability, T/C",[1],56.2%
same,"viability, T/C",[2],46.4%
same,"viability, T/C",[3],48.4%
same,"viability, T/C",[4],43.9%
same,"viability, T/C",[5],50.9%
same,"viability, T/C",[6],39.8%
same,"viability, T/C",[7],55.1%
same,"viability, T/C",[8],42.1%
same,"viability, T/C",[9],52.2%
same,"viability, T/C",[10],41.7%
same,"viability, T/C",[11],40.6%
same,"viability, T/C",[12],45.6%
same,"viability, T/C",[13],63.6%
same,"viability, T/C",[14],59.6%
same,"viability, T/C",[15],52.5%
same,"viability, T/C",[16],53.3%
same,"viability, T/C",[17],50.1%
same,"viability, T/C",[18],49.1%
same,"viability, T/C",[19],49.8%
same,"viability, T/C",[20],42.9%
same,"viability, T/C",[21],50.1%
same,"viability, T/C",[22],39%
same,"viability, T/C",[23],37.5%
same,"viability, T/C",[24],40.1%
same,"viability, T/C",[25],45.2%
same,"viability, T/C",[26],33.6%
same,"viability, T/C",[27],37.5%
same,"viability, T/C",[28],39.3%
same,"viability, T/C",[29],34.9%
same,"viability, T/C",[30],38.4%
same,"viability, T/C",[31],40.3%
same,"viability, T/C",[32],46.3%
same,"viability, T/C",[33],41.7%
same,"viability, T/C",[34],49.5%
same,"viability, T/C",[35],48.3%
same,"viability, T/C",[36],39.6%
